Data on 5 compounds can be found in US4389412A, “Substituted cyclopropanecarboxylic acid esters and pesticidal compositions containing the same as active ingredient” (priority 1979, dated 1983).

Converted amounts (≈) assume the structure as drawn. “Also recorded” adds a separate entry of the source.

In general, LD50 refers to the dose at which mortality reaches 50%. Read a high LD50 as lower toxicity.

Data set [1] relates to carp (Cyprinus carpio L). The data set can be described thus: Fish toxicity test with carp. As to conditions: 48 hrs., 21±1° C.; 2880 min. It is filed as in vivo. An outline of the steps:
(§1)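 Compound in acetone with Tween-20 dispersed in 50 L aerated water at a set concentration; five carp (about 6 g, 6 cm) exposed at 21±1° C. Deaths checked after 48 h, and TLm (median tolerance limit, ppm) determined.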

Data set [2] deals with water-fleas (Daphnia pulex). The data set can be described thus: Toxicity test with water-fleas. As to conditions: 25±1° C. It is filed as in vivo. Here is the method: Toxicity test with water-fleas (Daphnia pulex)
An acetone solution of one of the test compounds as mentioned in Table 10 and Tween-20 (the same surfactant as mentioned hereinbefore) was prepared. To 100 ml of water in a high-walled dish (9 cm in diameter, 7 cm deep) was added the above acetone solution. The mixture was stirred thoroughly to prepare an aqueous solution containing the test compound in a predetermined concentration. This was used as a test water. Twenty water-fleas (Daphnia pulex) were released into each test water which was maintained at 25±1° C. After 6 hours, the water-fleas were examined for deaths. The TLm (median tolerance limit, ppm) was determined.

Data set [3] deals with carp and water flea. The data set can be described thus: Fish toxicity ranking according to Japanese regulations. The note with it: from TLm for carp and water flea. Also on record: species or system Cyprinus carpio L; Daphnia pulex. An outline of the steps: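 Ranking per Japanese agrochemical regulations from median tolerance limits: A = carp TLm (48 hrs.) >10 ppm and water flea TLm (3 hrs.) >0.5 ppm; B = carp 10-0.5 ppm, or carp >10 ppm with water flea <0.5 ppm; C = carp TLm (48 hrs.) <0.5 ppm.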

The subject of data set [4] is fish. The data set can be described thus: Fish toxicity safety factor (TLm divided by maximum concentration in cover water). Also on record: species or system carp. The note with it: TLm / maximum concentration in cover water at LC50 application (100 l per 10 ares, 5 cm depth). An outline of the steps: (§2)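 Calculated index: carp TLm (ppm) divided by the maximum compound concentration expected in paddy cover water. That concentration assumes 100 l of solution at the pest LC50 applied per 10 ares onto 5 cm deep cover water, all of it entering the water.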

The test system of data set [5] is brown planthoppers (Nilaparvata lugens Stal). The data set can be described thus: Utility Example-1: LC50 on adult brown planthoppers on dipped rice plants. It is filed as in vivo. As to conditions: 25° C.; for Pesticidal activity LC50: 24 hours, 1440 min. An outline of the steps: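 Rice plants 4 weeks from sowing were dipped in water-diluted 1% emulsifiable concentrate at set concentrations and air-dried. Thirty adult N. lugens were caged on each pot, held at 25 °C.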

Data set [6] concerns pests. The data set can be described thus: Pesticidal effectiveness, overall. As to conditions: in vivo. The source says: The pesticidal activity of the compounds according to this invention against green rice leafhoppers (Nephotettix cincticeps Uhler), rice stem borers (Chilo suppressalis Walker), tobacco cutworms (Prodenia litura […]) and houseflies (Musca domestica), as examples of the pests against which the same compounds are considered effective, the acute toxicity data on the same compounds as determined in rat by the oral route and the median tolerance limit (TLm) data on the same compounds as determined in killifish (Orizias latipes) and guppies (Lebistes reticulatus) are shown in Table 1 alongside the corresponding values for various control compounds. The pesticidal effects were determined by the procedures set forth in Test Examples 1 through 4, while the acute toxicity to rat was determined by the procedure set forth in Test Example 9 and the toxicity to fish was determined by the procedures set forth in Test Examples 6 and 7, all those Examples appearing hereinafter.

In data set [7] the test system is green rice leafhoppers (Nephotettix cincticeps Uhler). The data set can be described thus: Mortality test with green rice leafhoppers by topical application method. On the procedure:
Mortality test with green rice leafhoppers (Nephotettix cincticeps Uhler) by topical application method
Then, the insects were kept at 25° C. with access to rice plant seedlings. The insects were used in groups of 15 individuals each.

The subject of data set [8] is tobacco cutworms (Prodenia litura Fabricius). The data set can be described thus: Mortality test with tobacco cutworms by topical application method. It is filed as in vivo. The note with it: 24 h, read-out: Pesticidal effect, tobacco cutworm. Here is the method: Mortality test with tobacco cutworms (Prodenia litura Fabricius) by topical application method
Using a microsyringe, 0.5 μl of the above solution was dripped onto the thoracic adbominal region of each of 3-instar tobacco cutworm (Prodenia litura Fabricius) larvae. […] The test larvae were used in groups of 20 individuals each.

The nature of data set [9]: Fish toxicity test with carp. It is filed as in vivo, Cyprinus carpio L. The note with it: carp, water, 48 hrs., 21±1° C.; read-out: TLm, Carp (48 hrs.). An outline of the steps: as §1
Data set [10] relates to rice stem borers (Chilo suppressalis Walker). The data set can be described thus: Mortality test with rice stem borers by topical application method. It is filed as in vivo. The note with it: 24 h. Here is the method:
Mortality test with rice stem borers (Chilo suppressalis Walker) by topical application method
Using a microsyringe, 0.5 μl of the above solution was applied to the thoracic abdominal region of each final-instar larva of rice stem borer (Chilo suppressalis Walker). […] The test larvae were used in groups of 20 individuals each.

Data set [11] in a line: Fish toxicity safety factor (TLm divided by maximum concentration in cover water). Set-up: species or system carp. As to conditions: in vivo, TLm / maximum concentration in cover water at LC50 application (100 l per 10 ares, 5 cm depth). An outline of the steps:
as §2

Data set [12] has as its system crop plants. The data set can be described thus: Phytotoxicity test. It is filed as in vivo. The note with it: 2,000 ppm solution on leaves, after 10 days. The source says:
A 2,000 ppm solution of each of the cis- and trans-isomers and a 50:50 mixture of cis- and trans-isomers of Compound (1) and of Compound (2), and a 50:50 mixture of the cis- and trans-isomers of Compound (B) and Compound (E) was applied to the leaves of the following crop plants.
After 10 days, the crop plants were examined for their phytotoxicities.

A short description of data set [13]: Acute toxicity test in rat by the oral route. It is filed as in vivo. The note with it: in vivo, male rat, in olive oil, after 7 days. The source says: Acute toxicity test in rat by the oral route
For data set [14], the system named is guppies (Lebistes reticulatus). The data set can be described thus: Fish toxicity test with guppies. As to conditions: Table 1; 48 hrs. It is filed as in vivo. Here is the method: (§3) Fish toxicity test with guppies (Lebistes reticulatus)
(§4) To 5 liters of water were added 250 mg of Sorpol SM-200 (trademark, Toho Chemical Co., Ltd.) as a surfactant and 2.5 ml of an acetone solution containing one of the test compounds in a predetermined concentration. The mixture was stirred thoroughly to prepare a test water. Ten female guppies (Lebistes reticulatus) of from 3 to 4 months of age were released into the test water which was maintained at 20° C. and the TLm (median tolerance limit, ppm) was determined.

The nature of data set [15]: Fish toxicity test with guppies. It is filed as in vivo, Lebistes reticulatus. As to conditions: guppy, water, guppies, 20° C., read-out: TLm (48 hrs.). Here is the method:
as §3, §4

The test system of data set [16] is houseflies (Musca domestica). The data set can be described thus: Mortality test with houseflies by topical application method. The note with it: 24 h.
The mark [17] stands for this setting: Nephotettix cincticeps, in Oryza sativa, 24 h.

Consider `C#CC(OC(=O)C1C(C=C(Cl)Cl)C1(C)C)c1cccc(Oc2ccc(Cl)cc2)c1` (stereo not drawn) [Compound (2) cis-/trans- = 10:90], for which, in [1], the “TLm, Carp (48 hrs.)” value was determined as 7.2 ppm. In addition, the “TLm, Water-flea (6 hrs.)” value in [2] is on record as over 40 ppm. Further, the Ranking entry in [3] is “B (TLm (48 hrs.) value 10-0.5 ppm for carp; or TLm (48 hrs.) value >10 ppm for carp and TLm (3 hrs.) value <0.5 ppm for water flea, wherein appreciable toxicity to fishes is not observed by usual application but may be observed when applied to wide area at one time.)”. Moreover, in [4], the “Fish toxicity safety factor” value was found to be 20. Besides, the “Pesticidal activity LC50” value in [5] is given as 180 ppm.
Turning to `C#CC(OC(=O)C1C(C=C(Cl)Cl)C1(C)C)c1cccc(Oc2ccc(Cl)cc2)c1` (stereo not drawn) [Compound (2), 3-(4-chlorophenoxy)-α-ethynylbenzyl 2,2-dimethyl-3-(2,2-dichlorovinyl)cyclopropanecarboxylate], in [6], the “pesticidal effectiveness in words” value is “excellent pesticidal activity against both the sensitive and resistant strains of pests; also recorded: at least equivalent or superior in pesticidal effectiveness to control compounds (A), (B), (C), (D), (E), (F), (G) and (H)”.
With `C#CC(OC(=O)C1C(C=C(Cl)Cl)C1(C)C)c1cccc(Oc2ccc(Cl)cc2)c1` (stereo not drawn) [Compound (2) cis-/trans- = 30:70], the “LD50 (median lethal dose)” value in data set [7] (green rice leafhoppers, 1440 min) was 0.40 µg/g. Also, the “TLm, Carp (48 hrs.)” value in [1] is 4.9 ppm. Further, the “TLm, Water-flea (6 hrs.)” value in [2] is reported as over 40 ppm. The Ranking entry in data set [3] is “B (TLm (48 hrs.) value 10-0.5 ppm for carp; or TLm (48 hrs.) value >10 ppm for carp and TLm (3 hrs.) value <0.5 ppm for water flea, wherein appreciable toxicity to fishes is not observed by usual application but may be observed when applied to wide area at one time.)”. In data set [4], the “Fish toxicity safety factor” value is recorded as 13.6. In data set [5], the “Pesticidal activity LC50” value is 180 ppm.
Consider `CC1(C)C(C=C(Cl)Cl)C1C(=O)OCc1cccc(Oc2ccc(Cl)cc2)c1` (centres unmarked) [Compound (1), 3-(4-chlorophenoxy)benzyl 2,2-dimethyl-3-(2,2-dichlorovinyl)cyclopropanecarboxylate], for which, in data set [6], the “pesticidal effectiveness in words” value was “excellent pesticidal activity against both the sensitive and resistant strains of pests; also recorded: at least equivalent or superior in pesticidal effectiveness to control compounds (A), (B), (C), (D), (E), (F), (G) and (H)”.
In data set [7] (setting [17]), `CC(C)C(C(=O)OC(C#N)c1cccc(Oc2ccccc2)c1)c1ccc(Cl)cc1` (centres unmarked) [Compound (E), Fenvalerate] returned a mortality at 0.01 µg/female of 100%, a mortality at 0.1 µg/female of 100% and a mortality at 1 µg/female of 100%. Also, the mortality at 10 ng in [7] (Nephotettix cincticeps, in Oryza sativa, 24 h, read-out: Pesticidal effect, green rice leafhopper) came to 100%. Besides, the mortality at 0.0001 mg in [8] worked out at 100%. Besides, the LC50 at 48 h in [9] was 0.0032 µg/mL (≈ 0.00762 µM). The Ranking result in data set [3] was “C (TLm (48 hrs.) value <0.5 ppm for carp, wherein toxicity to fishes is so strongly observed by usual application that both the application method and application area are strictly restricted.)”. In data set [10], this compound displayed a mortality at 1 µg/larva of 100% and a mortality at 10 µg/larva of 100%. Further, the mortality at 0.001 mg in data set [10] (read-out: Pesticidal effect, rice stem borer) was 100%. Further, the selectivity ratio in data set [11] was 0.001. For the same compound, the phytotoxicity result in [12] is “caused chlorosis to each one of the crop plants and did large damage to the same”. The LD50 at 168 h in [13] stood at 440 mg/kg. The LC50 in data set [5] (Nilaparvata lugens, 24 h, read-out: Pesticidal activity LC50) worked out at 1550 µg/mL (≈ 3690 µM). For the same compound, the “Toxicity to fish TLm, guppy” value in data set [14] is listed as under 0.5 ppm. Further, in [15], the LC50 at 48 h was under 0.5 µg/mL. Also, in data set [16], the mortality at 0.5 µg/female turned out to be 100% and the mortality at 1 µg/female came out at 100%. Also, the mortality at 0.001 mg in [16] (read-out: Pesticidal effect, housefly) is 100%.
